# Columns and labels:
# Assay type in all cases: biochemical
# Apis = Apis (Apis mellifera, UniProt P00630)
# COX-2 (cyclooxygenase-2) = target: T1, COX-2 (cyclooxygenase-2); assay: enzyme inhibition, Cayman kit; conditions: per manufacturer's instructions
# T1 construct: gene PTGS2; commercial, Cayman Chemical
# Source text: enzyme inhibition, Cayman kit on COX-2 (cyclooxygenase-2)
# [1] = target: T2, LOX 15HRC (Lipoxygenase 15hrc); assay: enzyme inhibition, Cayman kit; conditions: per manufacturer's instructions
# T2 construct: gene ALOX15; commercial, Cayman Chemical
# Source text: enzyme inhibition, Cayman kit on LOX 15HRC (Lipoxygenase 15hrc)
# [2] = target: T3, BPPLA2 (bovine pancreas PLA2) (Bos taurus, UniProt P00593); assay: enzyme inhibition, Cayman kit
# T3 construct: gene PLA2G1B; native pancreatic enzyme, purchased from Sigma-Aldrich
# T3 sequence (P00593 23-145): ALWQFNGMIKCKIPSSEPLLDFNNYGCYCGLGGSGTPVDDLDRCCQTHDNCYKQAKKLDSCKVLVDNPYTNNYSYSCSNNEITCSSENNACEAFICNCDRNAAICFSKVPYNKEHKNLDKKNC
# Source text: enzyme inhibition, Cayman kit on BPPLA2 (bovine pancreas PLA2)
# [3] = target: T4, HGVPLA2 (human group V PLA2) (Homo sapiens, UniProt P39877); assay: enzyme inhibition, Cayman kit
# T4 construct: gene PLA2G5; commercial assay, Cayman Chemical
# T4 sequence (P39877 21-138): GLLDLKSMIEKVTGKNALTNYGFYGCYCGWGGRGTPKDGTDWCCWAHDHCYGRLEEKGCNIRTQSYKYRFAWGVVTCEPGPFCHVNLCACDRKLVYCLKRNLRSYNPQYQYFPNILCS
# Source text: enzyme inhibition, Cayman kit on HGVPLA2 (human group V PLA2)
# Sequence of Apis (P00630 34-167 limits assumed): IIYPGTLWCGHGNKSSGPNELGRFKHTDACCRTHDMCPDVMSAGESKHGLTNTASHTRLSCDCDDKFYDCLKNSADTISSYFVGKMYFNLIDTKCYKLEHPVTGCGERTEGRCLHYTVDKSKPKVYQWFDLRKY
Structure (SMILES),"hydrolysis, A425 (Apis)",IC50 (COX-2 (cyclooxygenase-2)),IC50 [1],IC50 [2],IC50 [3]
CCCCCCCC(=O)Oc1cc(C(=O)O)ccc1[N+](=O)[O-] [4-nitro-3-octanoyloxy-benzoic acid],as a direct result of the cleavage of the synthetic substrate,–,–,–,–
CC1(C)Oc2cc3occ(-c4ccc5c(c4)OCO5)c(=O)c3c(O)c2C[C@H]1O [harpalycin 2],–,32.73 µg/mL,55.96 µg/mL,31.1 µM,71.7 µM

# Reference: article PMC3415135 (Evidence-based Complementary and Alternative Medicine : eCAM, 2012)
